Reference: the supplement of paper PMC10627819

Legend:
B. subtilis 168 [1] = assay: fitness (endpoint OD595 vs no drug) (fraction); higher = more growth
Method in brief: (§1)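 Plates with 384 wells were inoculated at OD595 0.01 using 30 µl of TSB, LB Lennox or CY, or 55 µl for S. pneumoniae. Incubation was at 37 °C, with OD595 measured every 30 min for 14 h. Fitness is the stationary-phase transition optical density over the robust mean of no-drug control wells, after first-reading background subtraction; it is capped at 1.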

S. aureus DSM 20231 [2] = assay: as above
Method in brief: as §1

S. aureus Newman [3] = assay: as above
Method in brief: as §1

S. pneumoniae D39V [4] = assay: as above
Method in brief: as §1

B. subtilis 168 [5] = assay: Bliss interaction score (quartile over a dose matrix) (fitness difference); higher = more antagonism (negative = synergy)
Method in brief: (§2)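 Growth was read as OD595 when cultures entered stationary phase, and each value was divided by the plate's robust no-drug mean and capped at 1. This normalised ratio is the fitness value, and fitness for each single drug came from the combination data. The Bliss score subtracts the expected fitness, taken as the product, from the observed fitness and is given as quartiles across technical, biological and donor/recipient replicates.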

S. aureus DSM 20231 [6] = assay: as above
Method in brief: as §2

S. aureus Newman [7] = assay: as above
Method in brief: as §2

S. pneumoniae D39V [8] = assay: as above
Method in brief: as §2
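Throughout, for Bliss interaction score (quartile over a dose matrix): first quartile when negative (synergy) and third quartile when positive (antagonism).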

CCCCCCCCCC(=O)N[C@@H](Cc1c[nH]c2ccccc12)C(=O)N[C@H](CC(N)=O)C(=O)N[C@@H](CC(=O)O)C(=O)N[C@@H]1C(=O)NCC(=O)N[C@@H](CCCN)C(=O)N[C@@H](CC(=O)O)C(=O)N[C@H](C)C(=O)N[C@@H](CC(=O)O)C(=O)NCC(=O)N[C@H](CO)C(=O)N[C@@H]([C@H](C)CC(=O)O)C(=O)N[C@@H](CC(=O)c2ccccc2N)C(=O)O[C@@H]1C [Daptomycin] + Cc1cc(NS(=O)(=O)c2ccc(N)cc2)no1 [Sulfamethoxazol]
one replicate
Conditions | fitness
B. subtilis 168 [1], first compound 0.125 µg/mL, partner 0.5 µg/mL | 0.919
B. subtilis 168 [1], first compound 0.25 µg/mL, partner 0.5 µg/mL | 0.908
B. subtilis 168 [1], first compound 0.5 µg/mL, partner 0.5 µg/mL | 0.969
B. subtilis 168 [1], first compound 1 µg/mL, partner 1 µg/mL | 0.719
B. subtilis 168 [1], first compound 1 µg/mL, partner 2 µg/mL | 0.72
B. subtilis 168 [1], first compound 1 µg/mL, partner 4 µg/mL | 0.645
S. aureus DSM 20231 [2], first compound 0.125 µg/mL, partner 1 µg/mL | 0.926
S. aureus DSM 20231 [2], first compound 0.125 µg/mL, partner 2 µg/mL | ≥ 1
S. aureus DSM 20231 [2], first compound 0.125 µg/mL, partner 4 µg/mL | ≥ 1
S. aureus DSM 20231 [2], first compound 0.25 µg/mL, partner 1 µg/mL | 0.951
S. aureus DSM 20231 [2], first compound 0.25 µg/mL, partner 2 µg/mL | ≥ 1
S. aureus DSM 20231 [2], first compound 0.25 µg/mL, partner 4 µg/mL | 0.974
S. aureus Newman [3], first compound 0.5 µg/mL, partner 8 µg/mL | 0.954
S. aureus Newman [3], first compound 1 µg/mL, partner 2 µg/mL | ≥ 1
S. aureus Newman [3], first compound 1 µg/mL, partner 4 µg/mL | 0.986
S. aureus Newman [3], first compound 1 µg/mL, partner 8 µg/mL | 0.973
S. aureus Newman [3], first compound 2 µg/mL, partner 2 µg/mL | 0.994
S. aureus Newman [3], first compound 2 µg/mL, partner 4 µg/mL | ≥ 1
S. aureus Newman [3], first compound 2 µg/mL, partner 8 µg/mL | 0.983

fitness
Conditions | partner 1 µg/mL | partner 2 µg/mL | partner 4 µg/mL
B. subtilis 168 [1], first compound 0.125 µg/mL | 0.893 | 0.821 | 0.938
B. subtilis 168 [1], first compound 0.25 µg/mL | 0.895 | 0.885 | 0.856
B. subtilis 168 [1], first compound 0.5 µg/mL | 0.928 | 0.814 | –
S. aureus DSM 20231 [2], first compound 0.5 µg/mL | 0.914 | ≥ 1 | ≥ 1
S. aureus DSM 20231 [2], first compound 1 µg/mL | 0.918 | 0.988 | 0.976
S. aureus DSM 20231 [2], first compound 2 µg/mL | 0.913 | 0.988 | 0.963
S. aureus Newman [3], first compound 0.125 µg/mL | 0.967 | 0.99 | ≥ 1
S. aureus Newman [3], first compound 0.25 µg/mL | 0.967 | 0.977 | ≥ 1
S. aureus Newman [3], first compound 0.5 µg/mL | 0.992 | 0.971 | ≥ 1
S. pneumoniae D39V [4], first compound 1 µg/mL | 0.932 | 0.95 | 0.964
S. pneumoniae D39V [4], first compound 2 µg/mL | 0.924 | 0.901 | 0.935
S. pneumoniae D39V [4], first compound 4 µg/mL | 0.916 | 0.938 | 0.938

Conditions | Bliss interaction score
B. subtilis 168 [5] | -0.0776
S. aureus DSM 20231 [6] | 0.041
S. aureus Newman [7] | 0.0337
S. pneumoniae D39V [8] | 0.0745

CCN(CC)CCOC(=O)c1ccc(N)cc1 [Procaine] + Cc1cc(NS(=O)(=O)c2ccc(N)cc2)no1 [Sulfamethoxazol]
fitness, one replicate
Conditions | first compound 85.5 µg/mL | first compound 171 µg/mL | first compound 342 µg/mL
B. subtilis 168 [1], partner 0.5 µg/mL | 0.971 | 0.908 | 0.963
S. aureus Newman [3], partner 8 µg/mL | 0.88 | 0.892 | 0.934

fitness
Conditions | B. subtilis 168 [1] | S. aureus DSM 20231 [2] | S. aureus Newman [3] | S. pneumoniae D39V [4]
first compound 85.5 µg/mL, partner 1 µg/mL | 0.909 | 0.976 | 0.999 | 0.991
first compound 85.5 µg/mL, partner 2 µg/mL | 0.88 | 0.979 | 0.984 | 0.982
first compound 85.5 µg/mL, partner 4 µg/mL | 0.905 | 0.999 | 0.959 | 0.924
first compound 171 µg/mL, partner 1 µg/mL | 0.865 | 0.992 | 0.99 | 0.979
first compound 171 µg/mL, partner 2 µg/mL | 0.836 | ≥ 1 | 0.981 | ≥ 1
first compound 171 µg/mL, partner 4 µg/mL | 0.936 | ≥ 1 | 0.937 | 0.923
first compound 342 µg/mL, partner 1 µg/mL | 0.88 | 0.944 | – | 0.979
first compound 342 µg/mL, partner 2 µg/mL | 0.78 | ≥ 1 | – | 0.974
first compound 342 µg/mL, partner 4 µg/mL | 0.918 | ≥ 1 | – | 0.908

Conditions | Bliss interaction score
B. subtilis 168 [5] | -0.0492
S. aureus DSM 20231 [6] | 0.0626
S. aureus Newman [7] | 0.0323
S. pneumoniae D39V [8] | 0.0407

CCN(CC)CCOC(=O)c1ccc(N)cc1 [Procaine] + CC1=C\[C@@H](O)CC(=O)Cc2nc(co2)C(=O)N2CCC=C2C(=O)O[C@H](C(C)C)[C@H](C)/C=C/C(=O)NC\C=C\1 [Virginiamycin M1]
fitness
Conditions | first compound 85.5 µg/mL | first compound 171 µg/mL | first compound 342 µg/mL
B. subtilis 168 [1], partner 0.0625 µg/mL | 0.957 | 0.962 | 0.904
B. subtilis 168 [1], partner 0.125 µg/mL | 0.88 | 0.92 | 0.881
B. subtilis 168 [1], partner 0.25 µg/mL | 0.905 | 0.892 | 0.882
S. aureus DSM 20231 [2], partner 0.0625 µg/mL | – | 0.976 | 0.872
S. aureus DSM 20231 [2], partner 0.125 µg/mL | – | ≥ 1 | ≥ 1
S. aureus DSM 20231 [2], partner 0.25 µg/mL | 0.94 | 0.906 | 0.878
S. pneumoniae D39V [4], partner 0.5 µg/mL | ≥ 1 | ≥ 1 | ≥ 1
S. pneumoniae D39V [4], partner 1 µg/mL | ≥ 1 | ≥ 1 | ≥ 1
S. pneumoniae D39V [4], partner 2 µg/mL | 0.948 | 0.926 | 0.951

fitness, one replicate
Conditions | first compound 85.5 µg/mL | first compound 171 µg/mL | first compound 342 µg/mL
S. aureus DSM 20231 [2], partner 0.5 µg/mL | 0.82 | 0.747 | 0.842
S. aureus DSM 20231 [2], partner 1 µg/mL | 0.726 | 0.774 | 0.779
S. aureus Newman [3], partner 0.0625 µg/mL | ≥ 1 | ≥ 1 | ≥ 1
S. aureus Newman [3], partner 0.125 µg/mL | ≥ 1 | ≥ 1 | ≥ 1
S. aureus Newman [3], partner 0.25 µg/mL | ≥ 1 | ≥ 1 | ≥ 1
S. aureus Newman [3], partner 0.5 µg/mL | 0.851 | 0.766 | 0.795
S. aureus Newman [3], partner 1 µg/mL | 0.977 | ≥ 1 | 0.968
S. aureus Newman [3], partner 2 µg/mL | 0.913 | 0.91 | 0.812
S. pneumoniae D39V [4], partner 0.15 µg/mL | 0.976 | 0.936 | 0.971
S. pneumoniae D39V [4], partner 0.3 µg/mL | 0.983 | 0.941 | 0.934

Conditions | Bliss interaction score
B. subtilis 168 [5] | -0.0324
S. aureus DSM 20231 [6] | -0.0838
S. aureus Newman [7] | 0.0179
S. pneumoniae D39V [8] | 0.036
